# In publication PMC5933782, “Molecular structures of cdc2-like kinases in complex with a new inhibitor chemotype” (PLoS ONE, 2018):
# pIC50: −log10 of the molar value.
# Experiments:
# [1] = target: CDK1/cyclin B; assay: radiometric protein kinase assay; assay type: biochemical, starfish; conditions: 15 μmol/L ATP
# [2] = system: 786–0; assay: NCI cancer cell line screening; assay type: cell-based; conditions: Homo sapiens; 786–0, Renal Cancer
# Description: (§1) Being the most promising compound in terms of CLK1 inhibitory potency and selectivity, KuWal151 (8c) was tested in the National Cancer Institute cancer cell line screening on 57 tumor cell lines of different tissue origin [45]. With only a few exceptions, KuWal151 inhibited the growth of most cell lines in submicromolar concentrations. In Table 2 the cancer cell line inhibition data is listed with the expression rates of SPF45 and CLK1 as indicated in the Expression Atlas database (https://www.ebi.ac.uk/gxa/home). Apparently the cell lines with high levels of CLK1 encoding RNA are inhibited over average. […] However, the available data are not sufficient to construe a clear relationship between the expression levels of the putative target CLK1 and sensitivity of the cell lines against 8c. The same holds true for SPF45, an important substrate of CLK1 involved in splicing which is found to be overexpressed in many cancer cell lines. […] The lack of a straight relationship between CLK1 and/or SPF45 expression levels on the one hand and sensitivity against the CLK1 inhibitor 8c on the other hand may have various reasons, e.g. different uptake rates of the inhibitor by the cells or alternative intracellular targets. For verification of the results from the NCI screening, which is based on the in situ fixation of cells followed by staining with the protein-binding dye sulforhodamin B [47, 48], 8c was also tested on two cell lines of the NCI panel (HT-29 and MDA-MB-231) in a crystal violet assay.
# [3] = system: A498; assay: NCI cancer cell line screening; assay type: cell-based; conditions: Homo sapiens; A498, Renal Cancer
# Description: as §1
# [4] = system: A549/ATCC; assay: NCI cancer cell line screening; assay type: cell-based; conditions: Homo sapiens, Non-Small Cell Lung Cancer
# Description: as §1
# [5] = system: ACHN; assay: NCI cancer cell line screening; assay type: cell-based; conditions: Homo sapiens, Renal Cancer
# Description: as §1
# [6] = system: CCRF-CEM; assay: NCI cancer cell line screening; assay type: cell-based; conditions: Homo sapiens, Leukemia
# Description: as §1
# [7] = system: COLO 205; assay: NCI cancer cell line screening; assay type: cell-based; conditions: Homo sapiens; COLO 205, Colon Cancer
# Description: as §1
# [8] = system: DU-145; assay: NCI cancer cell line screening; assay type: cell-based; conditions: Homo sapiens; DU-145, Prostate Cancer
# Description: as §1
# [9] = system: EKVX; assay: NCI cancer cell line screening; assay type: cell-based; conditions: Homo sapiens, Non-Small Cell Lung Cancer
# Description: as §1
# [10] = system: HCC-2998; assay: NCI cancer cell line screening; assay type: cell-based; conditions: Homo sapiens; HCC-2998, Colon Cancer
# Description: as §1
# [11] = system: HCT-116; assay: NCI cancer cell line screening; assay type: cell-based; conditions: Homo sapiens; HCT-116, Colon Cancer
# Description: as §1
# [12] = system: HCT-15; assay: NCI cancer cell line screening; assay type: cell-based; conditions: Homo sapiens; HCT-15, Colon Cancer
# Description: as §1
# [13] = system: HL-60(TB); assay: NCI cancer cell line screening; assay type: cell-based; conditions: Homo sapiens, Leukemia
# Description: as §1
# [14] = system: HOP-92; assay: NCI cancer cell line screening; assay type: cell-based; conditions: Homo sapiens; HOP-92, Non-Small Cell Lung Cancer
# Description: as §1
# [15] = system: HS 578T; assay: NCI cancer cell line screening; assay type: cell-based; conditions: Homo sapiens, Breast Cancer
# Description: as §1
# [16] = system: K-562; assay: NCI cancer cell line screening; assay type: cell-based; conditions: Homo sapiens, K562; K-562, Leukemia
# Description: as §1
# [17] = system: KM12; assay: NCI cancer cell line screening; assay type: cell-based; conditions: Homo sapiens; KM12, Colon Cancer
# Description: as §1
# [18] = system: LOX IMVI; assay: NCI cancer cell line screening; assay type: cell-based; conditions: Homo sapiens, Melanoma
# Description: as §1
# [19] = system: M14; assay: NCI cancer cell line screening; assay type: cell-based; conditions: Homo sapiens; M14, Melanoma
# Description: as §1
# [20] = system: MCF7; assay: NCI cancer cell line screening; assay type: cell-based; conditions: Homo sapiens; MCF7, Breast Cancer
# Description: as §1
# [21] = system: MDA-MB-435; assay: NCI cancer cell line screening; assay type: cell-based; conditions: Homo sapiens
# Description: as §1
# [22] = system: MDA-MB-468; assay: NCI cancer cell line screening; assay type: cell-based; conditions: Homo sapiens; MDA-MB-468, Breast Cancer
# Description: as §1
# [23] = system: NCI-H226; assay: NCI cancer cell line screening; assay type: cell-based; conditions: Homo sapiens; NCI-H226, Non-Small Cell Lung Cancer
# Description: as §1
# [24] = system: NCI-H23; assay: NCI cancer cell line screening; assay type: cell-based; conditions: Homo sapiens; NCI-H23, Non-Small Cell Lung Cancer
# Description: as §1
# [25] = system: NCI-H322M; assay: NCI cancer cell line screening; assay type: cell-based; conditions: Homo sapiens, Non-Small Cell Lung Cancer
# Description: as §1
# [26] = system: NCI/ADR-RES; assay: NCI cancer cell line screening; assay type: cell-based; conditions: Homo sapiens, Ovarian Cancer
# Description: as §1
# [27] = system: OVCAR-3; assay: NCI cancer cell line screening; assay type: cell-based; conditions: Homo sapiens; OVCAR-3, Ovarian Cancer
# Description: as §1
# [28] = system: OVCAR-4; assay: NCI cancer cell line screening; assay type: cell-based; conditions: Homo sapiens; OVCAR-4, Ovarian Cancer
# Description: as §1
# [29] = system: PC-3; assay: NCI cancer cell line screening; assay type: cell-based; conditions: Homo sapiens; PC-3, Prostate Cancer
# Description: as §1
# [30] = system: RPMI-8226; assay: NCI cancer cell line screening; assay type: cell-based; conditions: Homo sapiens; RPMI-8226, Leukemia
# Description: as §1
# [31] = system: RXF 393; assay: NCI cancer cell line screening; assay type: cell-based; conditions: Homo sapiens; RXF 393, Renal Cancer
# Description: as §1
# [32] = system: SK-MEL-28; assay: NCI cancer cell line screening; assay type: cell-based; conditions: Homo sapiens; SK-MEL-28, Melanoma
# Description: as §1
# [33] = system: SNB-19; assay: NCI cancer cell line screening; assay type: cell-based; conditions: Homo sapiens; SNB-19, CNS Cancer
# Description: as §1
# [34] = system: SNB-75; assay: NCI cancer cell line screening; assay type: cell-based; conditions: Homo sapiens; SNB-75, CNS Cancer
# Description: as §1
# [35] = system: U251; assay: NCI cancer cell line screening; assay type: cell-based; conditions: Homo sapiens, U-251; U251, CNS Cancer
# Description: as §1
# [36] = system: UACC-62; assay: NCI cancer cell line screening; assay type: cell-based; conditions: Homo sapiens; UACC-62, Melanoma
# Description: as §1
# [37] = system: UO-31; assay: NCI cancer cell line screening; assay type: cell-based; conditions: Homo sapiens; UO-31, Renal Cancer
# Description: as §1
smiles,measurement,setting,value
"O=C1NCc2ccc3c(-c4cccc(Cl)c4)c[nH]c3c21 [8c, 3-(3-Chlorophenyl)-6,7-dihydropyrrolo[3,4-g]indol-8(1H)-one]",pIC50,[1],< 5.00
same,GI50,[2],275 nM
same,GI50,[3],166 nM
same,GI50,[4],389 nM
same,GI50,[5],372 nM
same,GI50,[6],178 nM
same,GI50,[7],209 nM
same,GI50,[8],316 nM
same,GI50,[9],355 nM
same,GI50,[10],912 nM
same,GI50,[11],191 nM
same,GI50,[12],178 nM
same,GI50,[13],141 nM
same,GI50,[14],5620 nM
same,GI50,[15],204 nM
same,GI50,[16],162 nM
same,GI50,[17],209 nM
same,GI50,[18],245 nM
same,GI50,[19],132 nM
same,GI50,[20],174 nM
same,GI50,"[21]; MDA-MB-435, MDA-MB-435, Melanoma",72.4 nM
same,GI50,"[21]; MDA-MB-435, MDA-MB-435, as quoted in text",72 nM
same,GI50,[22],234 nM
same,GI50,[23],28800 nM
same,GI50,[24],525 nM
same,GI50,[25],2390 nM
same,GI50,[26],178 nM
same,GI50,[27],191 nM
same,GI50,[28],912 nM
same,GI50,[29],339 nM
same,GI50,[30],288 nM
same,GI50,[31],457 nM
same,GI50,[32],692 nM
same,GI50,[33],389 nM
same,GI50,[34],151 nM
same,GI50,[35],263 nM
same,GI50,[36],275 nM
same,GI50,[37],832 nM
